Test system: Erdnußlectin (Arachis Hypogea)
Experiment: Inhibition of peanut lectin haemagglutination of neuraminidase-treated erythrocytes
Assay type: cell-based
Conditions: compound at 0,5 mg/ml; erythrocytes as 2,5% suspension; lectin titer 2-^8
Method: Inhibition von Erdnußlectin (Arachis Hypogea) mit Verbindung 29
Die Hämagglutination von Neuraminidase(VCN)-behandelten Erythrozyten (als 2,5%-ige Suspension) mit Erdunßlectin (Titer 2-^8) wurde vollständig mit Verbindung 29 (0,5 mg/ml) inhibiert.

For `CC(=O)N[C@H]1[C@@H](OC(=O)N[C@@H](CO)C(=O)NCCCCCC(=O)O)O[C@H](CO)[C@H](O)[C@@H]1O[C@@H]1O[C@H](CO)[C@H](O)[C@H](O)[C@H]1O` [Verbindung 29, N-((2-Acetamido-2-desoxy-3-0-(8-D-galactopyranosyl)-alpha-D-galactopyranosyl)-oxycarbonyl)-L-seryl-S-carboxy-pentylamid], the “Hämagglutination von Neuraminidase(VCN)-behandelten Erythrozyten mit Erdunßlectin inhibiert” value was “vollständig”.
